Values after ≈ are worked out from the molar mass of the structure shown. Read-outs that look alike come from different tables or passages of the source.
Key:
MRSA HS 10132 [1] = experiment: Systemic lethal MRSA infection in mice (survival); type: in vivo
Bacillus cereus = experiment: Adjuvant broth microdilution (antibiotic MIC with SP-BIM at 50 μg/mL); type: cell-based; conditions: antibiotic alone, Table 9
Pseudomonas aeruginosa = experiment: as above; type: cell-based; conditions: antibiotic alone
Enterococcus faecalis = experiment: as above; type: cell-based; conditions: antibiotic alone
Klebsiella pneumoniae = experiment: as above; type: cell-based; conditions: for MIC of antibiotic, No Compound: Klebsiella pneumonia, no SP-BIM; for MIC: Klebsiella pneumoniae, read-out: MIC of antibiotic, No compound
MRSA HS 10132 [2] = experiment: Systemic non-lethal MRSA infection in mice (organ MRSA load); type: in vivo
[3] = system: clinical antibiotic resistant isolates of MRSA; experiment: Checkerboard resistance breaking by SP-BIM 13; type: cell-based, Staphylococcus aureus; conditions: for FIC compound: SP-BIM 13 with the labelled antibiotic; for Interpretation / Σ FIC: antibiotic + SP-BIM 13; for MIC of antibiotic only: antibiotic alone; for FIC antibiotic: combination with SP-BIM 13; for MIC of antibiotic in combination: with SP-BIM 13 at rescue concentration
Escherichia coli O157:H7 = experiment: Rescue concentrations of SP-BIM that reactivate antibiotic; type: cell-based; conditions: for MIC: Escherichia coli
[4] = system: clinical antibiotic resistant isolates of Enterococcus faecium; experiment: Checkerboard resistance breaking by SP-BIM 13; type: cell-based; conditions: for FIC compound / Rescue concentration of SP-BIM 13: SP-BIM 13 with the labelled antibiotic; for Interpretation / Σ FIC: antibiotic + SP-BIM 13; for MIC of antibiotic only: antibiotic alone; for FIC antibiotic: combination with SP-BIM 13; for MIC of antibiotic in combination: with SP-BIM 13 at rescue concentration
Enterobacter cloacae = experiment: Adjuvant broth microdilution (antibiotic MIC with SP-BIM at 50 μg/mL); type: cell-based; conditions: antibiotic alone
MRSA = experiment: as above; type: cell-based, Staphylococcus aureus

CC1(C)S[C@@H]2[C@H](NC(=O)[C@H](N)c3ccccc3)C(=O)N2[C@H]1C(=O)O [Ampicillin, ampicillin]
mortality (MRSA HS 10132 [1]; ampicillin only, 5 days): 100% | MIC of antibiotic, No Compound (Bacillus cereus): >250 µg/mL | MIC of antibiotic, No Compound (Pseudomonas aeruginosa): >250 µg/mL | MIC of antibiotic, No Compound (Enterococcus faecalis): 2 µg/mL | MIC of antibiotic, No Compound (Klebsiella pneumoniae; antibiotic alone): >250 µg/mL | MIC (Klebsiella pneumoniae; antibiotic alone, Table 7): > 250 µg/mL | MRSA load in the spleen (MRSA HS 10132 [2]; ampicillin only ([…] mg kg^−1), SP-BIM 9 study): 14,622 CFU g^−1 | MRSA counts in liver (MRSA HS 10132 [2]; ampicillin only ([…] mg kg^−1), subcutaneous): 3500 CFU mL^−1 | MRSA counts in the liver (MRSA HS 10132 [2]; ampicillin only, SP-BIM 9 study): 7605 CFU g^−1 | FIC compound ([3]; MRSA strain 1594): 0.128 | Interpretation ([3]; MRSA strain 1594): Synergy (Synergy: FICI≤0.5) | Σ FIC ([3]; MRSA strain 1594): <0.14 | MIC of antibiotic only ([3]; MRSA strain 1594): 250 µg/mL | FIC antibiotic ([3]; MRSA strain 1594): 0.016 | MIC of antibiotic in combination ([3]; MRSA strain 1594): 4 µg/mL | FIC compound ([3]; MRSA strain 1621): 0.128 | Interpretation ([3]; MRSA strain 1621): Synergy (Synergy: FICI≤0.5) | Σ FIC ([3]; MRSA strain 1621): <0.13 | MIC of antibiotic only ([3]; MRSA strain 1621): 250 µg/mL | FIC antibiotic ([3]; MRSA strain 1621): 0.002 | MIC of antibiotic in combination ([3]; MRSA strain 1621): 0.5 µg/mL | FIC compound ([3]; MRSA strain 5455): 0.252 | Interpretation ([3]; MRSA strain 5455): Synergy (Synergy: FICI≤0.5) | Σ FIC ([3]; MRSA strain 5455): <0.26 | MIC of antibiotic only ([3]; MRSA strain 5455): 250 µg/mL | FIC antibiotic ([3]; MRSA strain 5455): 0.004 | MIC of antibiotic in combination ([3]; MRSA strain 5455): 1 µg/mL | FIC compound ([3]; MRSA strain 5872): 0.128 | Interpretation ([3]; MRSA strain 5872): Synergy (Synergy: FICI≤0.5) | Σ FIC ([3]; MRSA strain 5872): <0.13 | MIC of antibiotic only ([3]; MRSA strain 5872): 250 µg/mL | FIC antibiotic ([3]; MRSA strain 5872): 0.002 | MIC of antibiotic in combination ([3]; MRSA strain 5872): 0.5 µg/mL | FIC compound ([3]; MRSA strain 7153): 0.252 | Interpretation ([3]; MRSA strain 7153): Synergy (Synergy: FICI≤0.5) | Σ FIC ([3]; MRSA strain 7153): <0.25 | MIC of antibiotic only ([3]; MRSA strain 7153): 250 µg/mL | FIC antibiotic ([3]; MRSA strain 7153): 0.002 | MIC of antibiotic in combination ([3]; MRSA strain 7153): 0.5 µg/mL | FIC compound ([3]; MRSA strain 7172): 0.128 | Interpretation ([3]; MRSA strain 7172): Synergy (Synergy: FICI≤0.5) | Σ FIC ([3]; MRSA strain 7172): <0.14 | MIC of antibiotic only ([3]; MRSA strain 7172): 250 µg/mL | FIC antibiotic ([3]; MRSA strain 7172): 0.008 | MIC of antibiotic in combination ([3]; MRSA strain 7172): 2 µg/mL | FIC compound ([3]; MRSA strain 7698): 0.128 | Interpretation ([3]; MRSA strain 7698): Synergy (Synergy: FICI≤0.5) | Σ FIC ([3]; MRSA strain 7698): <0.14 | MIC of antibiotic only ([3]; MRSA strain 7698): 250 µg/mL | FIC antibiotic ([3]; MRSA strain 7698): 0.008 | MIC of antibiotic in combination ([3]; MRSA strain 7698): 2 µg/mL | FIC compound ([3]; MRSA strain 10132): 0.064 | Interpretation ([3]; MRSA strain 10132): Synergy (Synergy: FICI≤0.5) | Σ FIC ([3]; MRSA strain 10132): <0.07 | MIC of antibiotic only ([3]; MRSA strain 10132): 250 µg/mL | FIC antibiotic ([3]; MRSA strain 10132): 0.002 | MIC of antibiotic in combination ([3]; MRSA strain 10132): 0.5 µg/mL | MIC of antibiotic without SP-BIM 13 ([3]; clinical MRSA strains): ≥ 250 µg/mL | MIC of Ampicillin in combination with […] SP-BIM 27 (Escherichia coli O157:H7; E. coli O157:H7, with […] SP-BIM 27): 2 µg/mL | MIC (Escherichia coli O157:H7; read-out: MIC of Ampicillin): 16 µg/mL | FIC compound ([4]; E. faecium strain 22870): 0.128 | Interpretation ([4]; E. faecium strain 22870): Synergy (Synergy: FICI≤0.5) | Σ FIC ([4]; E. faecium strain 22870): <0.14 | MIC of antibiotic only ([4]; E. faecium strain 22870): 250 µg/mL | FIC antibiotic ([4]; E. faecium strain 22870): 0.008 | MIC of antibiotic in combination ([4]; E. faecium strain 22870): 2 µg/mL | FIC compound ([4]; E. faecium strain RC63): 0252 | Interpretation ([4]; E. faecium strain RC63): Synergy (Synergy: FICI≤0.5) | Σ FIC ([4]; E. faecium strain RC63): <0.26 | MIC of antibiotic only ([4]; E. faecium strain RC63): 250 µg/mL | FIC antibiotic ([4]; E. faecium strain RC63): 0.008 | MIC of antibiotic in combination ([4]; E. faecium strain RC63): 2 µg/mL | MIC of antibiotic, No Compound (Enterobacter cloacae): >250 µg/mL

CN[C@H](CC(C)C)C(=O)N[C@H]1C(=O)N[C@@H](CC(N)=O)C(=O)N[C@H]2C(=O)N[C@H]3C(=O)N[C@H](C(=O)N[C@H](C(=O)O)c4cc(O)cc(O)c4-c4cc3ccc4O)[C@H](O)c3ccc(c(Cl)c3)Oc3cc2cc(c3O[C@@H]2O[C@H](CO)[C@@H](O)[C@H](O)[C@H]2O[C@H]2C[C@](C)(N)[C@H](O)[C@H](C)O2)Oc2ccc(cc2Cl)[C@H]1O [Vancomycin, vancomycin]
survival rate (MRSA HS 10132 [1]; vancomycin only): similarly high survival rate | MIC of antibiotic, No Compound (Bacillus cereus): 4 µg/mL | MIC of antibiotic, No Compound (Pseudomonas aeruginosa): >250 µg/mL | MIC of antibiotic, No Compound (Enterococcus faecalis): 250 µg/mL | MIC (MRSA; Staphylococcus aureus, read-out: MIC of antibiotic, No compound): 4 µg/mL | MIC of antibiotic, No Compound (MRSA; antibiotic alone, Table 8 (series SP-BIMs 21-29)): 2 µg/mL | MIC of antibiotic, No Compound (Klebsiella pneumoniae; antibiotic alone): >250 µg/mL | MIC (Klebsiella pneumoniae): > 250 µg/mL | MIC (Escherichia coli O157:H7; read-out: MIC (single agent)): 250 µg/mL (≈ 173 µM) | FIC compound ([4]; E. faecium strain 21024): 0.128 | Rescue concentration of SP-BIM 13 ([4]; E. faecium strain 21024): 32 µg/mL | Interpretation ([4]; E. faecium strain 21024): Synergy (Synergy: FICI≤0.5) | Σ FIC ([4]; E. faecium strain 21024): <0.14 | MIC of antibiotic only ([4]; E. faecium strain 21024): 63 µg/mL | FIC antibiotic ([4]; E. faecium strain 21024): 0.016 | MIC of antibiotic in combination ([4]; E. faecium strain 21024): 1 µg/mL | FIC compound ([4]; E. faecium strain 22870): 0.004 | Rescue concentration of SP-BIM 13 ([4]; E. faecium strain 22870): 1 µg/mL | Interpretation ([4]; E. faecium strain 22870): Synergy (Synergy: FICI≤0.5) | Σ FIC ([4]; E. faecium strain 22870): <0.07 | MIC of antibiotic only ([4]; E. faecium strain 22870): 32 µg/mL | FIC antibiotic ([4]; E. faecium strain 22870): 0.063 | MIC of antibiotic in combination ([4]; E. faecium strain 22870): 2 µg/mL | FIC compound ([4]; E. faecium strain 23227): 0.032 | Rescue concentration of SP-BIM 13 ([4]; E. faecium strain 23227): 8 µg/mL | Interpretation ([4]; E. faecium strain 23227): Synergy (Synergy: FICI≤0.5) | Σ FIC ([4]; E. faecium strain 23227): <0.06 | MIC of antibiotic only ([4]; E. faecium strain 23227): 32 µg/mL | FIC antibiotic ([4]; E. faecium strain 23227): 0.031 | MIC of antibiotic in combination ([4]; E. faecium strain 23227): 1 µg/mL | FIC compound ([4]; E. faecium strain 23230): 0.064 | Rescue concentration of SP-BIM 13 ([4]; E. faecium strain 23230): 16 µg/mL | Interpretation ([4]; E. faecium strain 23230): Synergy (Synergy: FICI≤0.5) | Σ FIC ([4]; E. faecium strain 23230): <0.13 | MIC of antibiotic only ([4]; E. faecium strain 23230): 32 µg/mL | FIC antibiotic ([4]; E. faecium strain 23230): 0.063 | MIC of antibiotic in combination ([4]; E. faecium strain 23230): 2 µg/mL | FIC compound ([4]; E. faecium strain 23668): 0.064 | Rescue concentration of SP-BIM 13 ([4]; E. faecium strain 23668): 16 µg/mL | Interpretation ([4]; E. faecium strain 23668): Synergy (Synergy: FICI≤0.5) | Σ FIC ([4]; E. faecium strain 23668): <0.10 | MIC of antibiotic only ([4]; E. faecium strain 23668): 32 µg/mL | FIC antibiotic ([4]; E. faecium strain 23668): 0.031 | MIC of antibiotic in combination ([4]; E. faecium strain 23668): 1 µg/mL | FIC compound ([4]; E. faecium strain 24169): 0.128 | Rescue concentration of SP-BIM 13 ([4]; E. faecium strain 24169): 32 µg/mL | Interpretation ([4]; E. faecium strain 24169): Synergy (Synergy: FICI≤0.5) | Σ FIC ([4]; E. faecium strain 24169): <0.14 | MIC of antibiotic only ([4]; E. faecium strain 24169): 63 µg/mL | FIC antibiotic ([4]; E. faecium strain 24169): 0.008 | MIC of antibiotic in combination ([4]; E. faecium strain 24169): 0.5 µg/mL | Rescue concentration of SP-BIM 13 ([4]; E. faecium strain RC63): 63 µg/mL | Interpretation ([4]; E. faecium strain RC63): Synergy (Synergy: FICI≤0.5) | Σ FIC ([4]; E. faecium strain RC63): <0.26 | MIC of antibiotic only ([4]; E. faecium strain RC63): 32 µg/mL | FIC antibiotic ([4]; E. faecium strain RC63): 0.006 | MIC of antibiotic in combination ([4]; E. faecium strain RC63): 0.2 µg/mL | MIC ([4]; Enterococcus faecium, read-out: MIC of Vancomycin without SP-BIM 13): 32 to 63 µg/mL | MIC of antibiotic, No Compound (Enterobacter cloacae): >250 µg/mL

Source: patent US12285407B2, “Bis-indolylmethane derivatives and uses thereof” (The University of The West Indies, priority 2018, dated 2025)
